Assay results reported in PMC10671360, “In Silico and In Vitro Study towards the Rational Design of 4,4′-Disarylbisthiazoles as a Selective α-Synucleinopathy Biomarker” (International Journal of Molecular Sciences, 2023).
Entries after “also recorded” stand apart in the source; their conditions may differ.

Key:
[1] = target: T1, recombinant α-syn fibrils (Homo sapiens, UniProt P37840); assay: Competition binding assay against [^3H]PiB, α-syn fibrils; conditions: for Selectivity Aβ/α-syn / Selectivity tau/α-syn: ratio of Ki, [^3H]PiB was used
T1 construct: made in house

[2] = Solubility in the incubation medium of the binding assays; format: physicochemical; conditions: incubation buffer of the binding assays
tau fibrils = tau fibrils (Homo sapiens, UniProt P10636); assay: Competition binding assay against [^3H]PiB, tau fibrils
Chain of tau fibrils (P10636 2-758): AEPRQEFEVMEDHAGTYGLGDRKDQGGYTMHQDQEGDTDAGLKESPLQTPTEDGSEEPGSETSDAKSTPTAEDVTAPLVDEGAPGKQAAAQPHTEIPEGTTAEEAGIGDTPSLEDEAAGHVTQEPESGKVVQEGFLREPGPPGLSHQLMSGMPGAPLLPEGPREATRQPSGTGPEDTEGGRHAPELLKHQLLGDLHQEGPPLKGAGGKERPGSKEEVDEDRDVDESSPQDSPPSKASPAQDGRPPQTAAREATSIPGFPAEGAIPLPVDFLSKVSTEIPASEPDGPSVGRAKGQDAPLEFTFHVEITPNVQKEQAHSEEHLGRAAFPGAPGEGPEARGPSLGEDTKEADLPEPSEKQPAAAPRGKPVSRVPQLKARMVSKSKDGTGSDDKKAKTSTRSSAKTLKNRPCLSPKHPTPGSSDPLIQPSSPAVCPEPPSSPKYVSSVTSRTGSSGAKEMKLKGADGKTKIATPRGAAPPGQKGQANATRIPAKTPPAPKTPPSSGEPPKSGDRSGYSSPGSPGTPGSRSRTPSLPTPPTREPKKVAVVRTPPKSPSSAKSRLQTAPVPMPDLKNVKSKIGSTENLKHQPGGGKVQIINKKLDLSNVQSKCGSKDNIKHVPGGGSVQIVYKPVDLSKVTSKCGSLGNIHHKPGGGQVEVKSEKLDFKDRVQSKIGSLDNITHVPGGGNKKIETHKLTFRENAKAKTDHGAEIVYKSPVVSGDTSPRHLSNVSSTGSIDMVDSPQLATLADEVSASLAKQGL
Procedure: Recombinant tau monomer (R&D systems, Minneapolis, MN, USA) was dissolved in 20 mM of Tris HCl, pH 8.0, 100 mM of NaCl, 25 μM of low-MW heparin, and 0.5 mM of dithiothreitol to a final concentration of 300 µg/mL. The mixture was incubated with shaking at 900 rpm at 37 °C for 48 h. To separate the non-aggregated monomers from the formed fibrils, the reaction mixture was centrifuged at 12,000× g for 5 min, and the resulting pellet was washed three times with 500 μL of 20 mM Tris-HCl, pH 7.4. The supernatants from the three centrifugation steps were combined, and the concentration of the monomer in the resulting supernatant was determined in a BCA assay(Thermo Fisher Scientific, Waltham, MA, USA) (with a BSA standard curve). Determination of the concentration of fibrils formed was carried out by subtracting the amount of tau peptide monomer in the supernatant from the initial amount used for fibrillation. The pellets of the fibrils obtained above (Section 4.2.1) were resuspended in 20 mM of Tris-HCl, pH 7.4 and diluted as needed for the binding assays. A fixed concentration of [^3H]DCVJ (10 nM) and α-synuclein aggregates (125 nM), prepared as described above (Section 4.2.3), was used with different final concentrations of the DABTAs from 0.01 to 100 nM (see SI Figure S1). The experiment was carried out in quintuplicate for each concentration. The mixture was incubated for 2 h in a final volume of 200 μL per well after dilution with 20 mM of Tris-HCl, pH 7.4. The incubated mixtures were filtered through a Perkin Elmer GF/B glass filter via a TOMTEC cell harvester and immediately washed thrice with 1 mL of deionized water. The filters containing the bound ligands were dried and afterwards mixed with 3 mL of BetaPlate Scint solution (Perkin Elmer Life Sciences, Waltham, MA, USA) and left there for 2 h before counting in a Wallac 1450 MicroBeta TriLux Liquid Scintillation Counter (PerkinElmer Life Sciences, Waltham, MA, USA). For the determination of the inhibition constants, data were analyzed using GraphPad Prism software (version 7.0) to obtain IC50 values by fitting the data to the equation Y = bottom + (top − bottom)/(1 + 10(x − log IC50)). Ki values were calculated from IC50 values using the equation Ki = IC50/(1 + [radioligand]/Kd). […] Further protocol was carried out as for [^3H]DCVJ (see SI Figure S3). […] Further procedures followed the same already described in Section 4.2.3.1 (See SI Figure S4).

[3] = target: T1, recombinant α-syn fibrils; assay: Competition binding assay against [^3H]DCVJ, α-syn fibrils; conditions: ratio of Ki, [^3H]DCVJ was used
Procedure: The incubation of purified recombinant α-synuclein monomer (10 mg/mL) obtained as described by Uzuegbunam was carried out in PBS (pH 7.4) at 37 °C. The solution was left shaking at 900 rpm in an Eppendorf Thermomixer for up to 84 h. Determination of the concentration of the formed fibrils (α-syn) was carried out following the centrifugation of the reaction vial at 12,000× g for 5 min. The pellet obtained was washed thrice with 20 mM of Tris-HCl, pH 7.4. The supernatants from the three centrifugation steps were combined, and the concentration of the monomer in the resulting supernatant was determined in a BCA assay (Thermo Fisher Scientific, Waltham, MA, USA) (with a BSA standard curve). Determination of the concentration of α-syn was carried out by subtracting the amount of α-synuclein monomer in the supernatant from the initial amount used for fibrillation.
(§1) The pellets of the fibrils obtained above (Section 4.2.1) were resuspended in 20 mM of Tris-HCl, pH 7.4 and diluted as needed for the binding assays.
(§2) A fixed concentration of [^3H]DCVJ (10 nM) and α-synuclein aggregates (125 nM), prepared as described above (Section 4.2.3), was used with different final concentrations of the DABTAs from 0.01 to 100 nM (see SI Figure S1). The experiment was carried out in quintuplicate for each concentration. The mixture was incubated for 2 h in a final volume of 200 μL per well after dilution with 20 mM of Tris-HCl, pH 7.4. The incubated mixtures were filtered through a Perkin Elmer GF/B glass filter via a TOMTEC cell harvester and immediately washed thrice with 1 mL of deionized water. The filters containing the bound ligands were dried and afterwards mixed with 3 mL of BetaPlate Scint solution (Perkin Elmer Life Sciences, Waltham, MA, USA) and left there for 2 h before counting in a Wallac 1450 MicroBeta TriLux Liquid Scintillation Counter (PerkinElmer Life Sciences, Waltham, MA, USA). For the determination of the inhibition constants, data were analyzed using GraphPad Prism software (version 7.0) to obtain IC50 values by fitting the data to the equation Y = bottom + (top − bottom)/(1 + 10(x − log IC50)). Ki values were calculated from IC50 values using the equation Ki = IC50/(1 + [radioligand]/Kd). […] Further protocol was carried out as for [^3H]DCVJ (see SI Figure S3).

Aβ1−42 fibrils = target: T2, Aβ1−42 fibrils (Homo sapiens, UniProt P05067); assay: Competition binding assay against [^3H]PiB, Aβ1−42 fibrils; conditions: read-out: Ki Aβ
T2 construct: 1 mg of β-amyloid1–42 peptide (Abcam, Cambridge, UK); purchased Abcam
T2 sequence (P05067 672-713): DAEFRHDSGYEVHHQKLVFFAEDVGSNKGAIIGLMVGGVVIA
Procedure: After the dissolution of 1 mg of β-amyloid1–42 peptide (Abcam, Cambridge, UK) in 50 μL of DMSO, 925 μL of Milli-Q® water was added to it, and the mixture was stirred. Finally, 25 μL of 1M Tris HCl, pH 7.4 was added to bring the final peptide concentration to 1 mg/mL. The mixture was then left to incubate at 37 °C for 30 h with shaking at 900 rpm. To separate the non-aggregated monomers from the formed fibrils, the reaction mixture was centrifuged at 12,000× g for 5 min, and the resulting pellet was washed three times with 500 μL of 20 mM Tris-HCl, pH 7.4. The supernatants from the three centrifugation steps were combined, and the concentration of the monomer in the resulting supernatant was determined in a BCA assay (Thermo Fisher Scientific, Waltham, MA, USA) (with a BSA standard curve). Determination of the concentration of fibrils formed was carried out by subtracting the amount of β-amyloid1−42 peptide monomer in the supernatant from the initial amount used for fibrillation.
as §1, §2
Further procedures followed the same already described in Section 4.2.3.1 (See SI Figure S4).

[4] = parameters: method as in PMID 35572127; conditions: cited from earlier work
tau = tau (Homo sapiens, UniProt P10636); parameters: method as in PMID 12657667, PMID 32098280, PMID 18221373; conditions: [^3H]PiB; cited from earlier work
Chain of tau (P10636 2-758): as the sequence (P10636 2-758) above

α-syn = α-syn (Homo sapiens, UniProt P37840); parameters: method as in PMID 12657667, PMID 32098280, PMID 18221373; conditions: [^3H]PiB; cited from earlier work

SMILES | Ki [1] [nM] | solubility in the incubation medium [2] | Selectivity Aβ/α-syn [3] | Selectivity tau/α-syn [3] | Ki (Aβ1−42 fibrils) [nM] | brain uptake and washout [4] | Selectivity Aβ/α-syn [1] | Selectivity tau/α-syn [1] | further results
FCCOCCOc1cnc(-c2csc(-c3nc(-c4cnc5c(c4)OCO5)cs3)n2)nc1 [f8, 6-(4′-(5-(2-(2-Fluoroethoxy)ethoxy)pyrimidin-2-yl)-[2,2′-bithiazol]-4-yl)-[1,3]dioxolo[4,5-b]pyridine] | 2.3 | low solubility; also recorded: decreased solubility | – | – | – | – | – | – | –
COc1ccc(-c2csc(-c3nc(-c4cnc5c(c4)OCO5)cs3)n2)cc1OC [f18, 6-(4′-(3,4-Dimethoxyphenyl)-[2,2′-bithiazol]-4-yl)-[1,3]dioxolo[4,5-b]pyridine] | 4.99 | low solubility; also recorded: decreased solubility | – | – | – | – | – | – | –
Fc1ccc(-c2csc(-c3nc(-c4ccc5c(c4)OCO5)cs3)n2)cn1 [d6, 4-(Benzo[d][1,3]dioxol-5-yl)-4′-(6-fluoropyridin-3-yl)-2,2′-bithiazole] | 2.51 | – | 196.0 | 798.3 | 151 | excellent brain uptake and washout | 60.1 | 318.2 | Ki (tau fibrils): 799 nM
[3H]C([3H])([3H])Nc1ccc(-c2nc3ccc(O)cc3s2)cc1 [[^3H]PiB] | – | – | – | – | – | – | – | – | Kd (tau): 117 nM; Kd (α-syn): 4.9 nM
ICCOCCOCCOc1cnc(-c2csc(-c3nc(-c4cnc5c(c4)OCO5)cs3)n2)nc1 [h13, 6-(4′-(5-(2-(2-(2-Iodoethoxy)ethoxy)ethoxy)pyrimidin-2-yl)-[2,2′-bithiazol]-4-yl)-[1,3]dioxolo[4,5-b]pyridine] | 1.17 | low solubility; also recorded: decreased solubility | – | – | – | – | – | – | –
Fc1ccc(-c2csc(-c3nc(-c4cnc5c(c4)OCO5)cs3)n2)cn1 [d8, 6-(4′-(6-Fluoropyridin-3-yl)-[2,2′-bithiazol]-4-yl)-[1,3]dioxolo[4,5-b]pyridine] | 1.01 | – | 3863.0 | >10,000.0 | 127 | excellent brain uptake and washout | 125.8 | >990.1 | –
